Measured values: patent US20260265175A1, “METHOD FOR OBTAINING ORGANIC ACIDS FROM AN AQUEOUS MOTHER LIQUOR” (Covestro Deutschland AG, priority 2022, published 2026)

Legend:
[1] = Precipitation of 2-aminobenzoic acid (oAB) from aqueous solution as metal compound; residual oAB in supernatant by HPLC; type: physicochemical; details: value is the detection limit
Text: The pH was adjusted to about 3.5 with a 1M NaOH solution (corresponding to the isoelectric point of oAB). […] The solid (Cu(oAB)2, Fe(oAB)2 and/or Mn(oAB)2) was separated from the liquid phase by centrifugation.

[2] = Cu(OH)2 roughly stoichiometric, pH 4.5, starting solution 12 g/L

Row | Structure (SMILES) | oAB concentration in aqueous supernatant after precipitation of the metal compound of the organic acid (sample A) ([1]; CuSO4, FeSO4 or MnSO4, metal salt:oAB 1:2, pH about 3.5, room temperature, starting solution 5 g/L) | oAB concentration in liquid phase after precipitation with recycled metal hydroxide (sample C) ([1]; after addition both of Fe(OH)2 and Cu(OH)2, pH 3.5, starting solution 5 g/L) | adipic acid concentration in liquid phase after precipitation with recycled Cu(OH)2 (sample C) [2]
1 | Nc1ccccc1C(=O)O [oAB, 2-Aminobenzoic acid] | < 0.05 goAB/L | < 0.05 goAB/L | –
2 | O=C(O)CCCCC(=O)O [adipic acid, Adipic acid] | – | – | 3 g/L
